In data set [1] the target is T1, h-jak3(810-1124) (JAK3 recombinant human kinase domain) (Homo sapiens, UniProt P52333).
T1 construct: Ic50 h-jak3(810-1124)-; made in house; host or cells: Sf9 insect cells
Description: Determination of IC50 of Janus Kinase (JAK) inhibition, radioactive end-point 33P-ATP kinase assay, JAK3. Format: biochemical. As to conditions: JAK3 kinase domain (810-1124), sf9; no additive; ATP 1.5 uM, peptide 50 uM, 20 minutes, room temperature; read-out: Ic50 h-jak3(810-1124)-sf9-c: no additive. From the text: Determination of IC50 of Janus Kinase (JAK) Inhibition:
Enzymes and peptide substrate used are described below: • JAK1: Recombinant human kinase domain from Invitrogen (Cat # PV4774) • JAK3: Recombinant human kinase domain from Millipore (Cat # 14-629) or prepared. • JAK2: Recombinant human kinase domain from Millipore (Cat # 14-640) Substrate: N-terminally biotinylated 14-mer peptide derived from activation loop of JAK1 with sequence of the peptide substrate: Biotin-[…]
Assay conditions used are described below: • Assay Buffer: JAK Kinase Buffer: 50 mM Hepes [pH 7.2], 10 mM MgCl2, 1 mM DTT, 1 mg/ml BSA. The assay was carried out in this buffer. • Assay Format The kinase activity of all three JAK kinases was measured using a radioactive, end-point assay and with trace amounts of ^33P-ATP. The assays were carried out in 96-well polypropylene plates. Experimental Method:
All concentrations were final in the reaction mixture and all incubations were carried at room temperature. Assay steps are described below: • 1) Compounds were serially diluted in 100% DMSO typically at a 10× starting concentration of 1 mM. Final concentration of DMSO in the reaction was 10%. • 2) Compounds were preincubated with enzyme (0.5 nM JAK3 (commercially available), 0.2 nM JAK3 (prepared), 1 nM JAK2, 5 nM JAK1) for 10 minutes. • 3) Reactions were initiated by the addition of a cocktail of the two substrates (ATP and peptide premixed in the JAK Kinase Buffer). In the JAK2/JAK3 assays, ATP and the peptide were used at concentrations of 1.5 uM and 50 uM, respectively. JAK1 assay was carried out at an ATP concentration of 10 uM and a peptide concentration of 50 uM. • 4) The duration of the assay for JAK2 and JAK3 is 20 minutes. JAK1 assay was carried out for 40 minutes. With all three enzymes, reactions were terminated by the addition of 0.5M EDTA to a final concentration of 100 mM. • 5) 25 ul of terminated reactions were transferred to 150 ul of a 7.5% (v/v) slurry of streptavidin-coated sepharose beads in MgCl2- and CaCl2-free 1× Phosphate Buffered Saline containing 50 mM of EDTA in 96-well, 1.2 um MultiScreen-BV filter plates. • 6) After a 30-minute incubation, the beads were washed under vacuum with the following buffers: • a. 3 to 4 washes with 200 ul of 2M NaCl. • b. 3 to 4 washes with 200 ul of 2M NaCl plus 1% (v/v) phosphoric acid. • c. 1 wash with water. • 7) Washed plates were dried in a 60° C. oven for between 1 to 2 hours. • 8) 70 ul of Microscint 20 scintillation fluid was added to each well of filter plates and after at least 30 minutes of incubation, radioactive counts were measured in a Perkinelmer microplate scintillation counter.

pIC50: −log10 of the molar value.

T1 sequence (P52333 810-1124): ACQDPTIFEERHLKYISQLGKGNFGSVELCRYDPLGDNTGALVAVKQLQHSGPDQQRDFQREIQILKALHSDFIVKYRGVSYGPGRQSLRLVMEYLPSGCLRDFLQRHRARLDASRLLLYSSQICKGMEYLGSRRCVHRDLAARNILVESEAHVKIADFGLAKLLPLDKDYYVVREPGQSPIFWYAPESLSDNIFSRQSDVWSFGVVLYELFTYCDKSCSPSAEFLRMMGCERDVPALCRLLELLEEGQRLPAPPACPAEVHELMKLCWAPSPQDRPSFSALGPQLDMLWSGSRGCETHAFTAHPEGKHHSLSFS

In turn, `NC(=O)CNC(=O)c1c[nH]c2ncc(C3CC3)nc12` [Compound I-1, 2-Cyclopropyl-5H-pyrrolo[2,3-b]pyrazine-7-carboxylic acid carbamoylmethyl-amide] showed a melting point of 215 to 220 °C. For the same compound, the pIC50 in data set [1] was 6.54.
`CC(CC(=O)NCC(F)(F)F)NC(=O)c1c[nH]c2ncc(C3CC3)nc12` (stereo not shown) [Compound I-2, 2-Cyclopropyl-5H-pyrrolo[2,3-b]pyrazine-7-carboxylic acid [1-methyl-2-(2,2,2-trifluoro-ethylcarbamoyl)-ethyl]-amide] came in with a melting point of 230 to 232 °C. Besides, the pIC50 in data set [1] was 6.70.
As to `CCNC(=O)CC(C)NC(=O)c1c[nH]c2ncc(C3CC3)nc12` (stereo not shown) [Compound I-3, 2-Cyclopropyl-5H-pyrrolo[2,3-b]pyrazine-7-carboxylic acid (2-ethylcarbamoyl-1-methyl-ethyl)-amide], the melting point lay within 182 to 184 °C. Also, in data set [1], the pIC50 is 6.04.
In turn, `CCCNC(=O)CC(C)NC(=O)c1c[nH]c2ncc(C3CC3)nc12` (stereo not shown) [Compound I-4, 2-Cyclopropyl-5H-pyrrolo[2,3-b]pyrazine-7-carboxylic acid (1-methyl-2-propylcarbamoyl-ethyl)-amide] displayed a melting point of 198 to 200 °C. Further, in data set [1], the negative logarithm of the IC50 (pIC50) is 6.08.
`CC(CC(=O)NC1CC1)NC(=O)c1c[nH]c2ncc(C3CC3)nc12` (stereo not shown) [Compound I-5, 2-Cyclopropyl-5H-pyrrolo[2,3-b]pyrazine-7-carboxylic acid (2-cyclopropylcarbamoyl-1-methyl-ethyl)-amide] displayed a melting point of 236 to 238 °C. Besides, the pIC50 in data set [1] is 6.01.
As for `C[C@@H](NC(=O)c1c[nH]c2ncc(C3CC3)nc12)C(=O)N(C)C` [Compound I-6, 2-Cyclopropyl-5H-pyrrolo[2,3-b]pyrazine-7-carboxylic acid ((R)-1-dimethylcarbamoyl-ethyl)-amide], the pIC50 in data set [1] is 6.95.
Turning to `CC(C)(C(N)=O)C(NC(=O)c1c[nH]c2ncc(C3CC3)nc12)C1CC1` (stereo not shown) [Compound I-7, 2-Cyclopropyl-5H-pyrrolo[2,3-b]pyrazine-7-carboxylic acid (2-carbamoyl-1-cyclopropyl-2-methyl-propyl)-amide], the melting point fell in the range of 222 to 224 °C. In addition, the pIC50 in data set [1] was 7.17.
`C[C@@H](NC(=O)c1c[nH]c2ncc(C3CC3)nc12)C(=O)N(C)CC#N` [Compound I-8, 2-Cyclopropyl-5H-pyrrolo[2,3-b]pyrazine-7-carboxylic acid [(R)-1-(cyanomethyl-methyl-carbamoyl)-ethyl]-amide]: the pIC50 in data set [1] was 7.40.
Consider `C[C@H](NC(=O)c1c[nH]c2ncc(C3CC3)nc12)C(=O)N(C)C` [Compound I-9, 2-Cyclopropyl-5H-pyrrolo[2,3-b]pyrazine-7-carboxylic acid ((S)-1-dimethylcarbamoyl-ethyl)-amide], for which the pIC50 in data set [1] was 5.91.
In the case of `CC(C)C[C@@H](NC(=O)c1c[nH]c2ncc(C3CC3)nc12)C(=O)N(C)C` [Compound I-10, 2-Cyclopropyl-5H-pyrrolo[2,3-b]pyrazine-7-carboxylic acid ((R)-1-dimethylcarbamoyl-3-methyl-butyl)-amide], in data set [1], the pIC50 was 7.02.
With `O=C(N[C@@H]1CCCNC1=O)c1c[nH]c2ncc(C3CC3)nc12` [Compound I-11, 2-Cyclopropyl-5H-pyrrolo[2,3-b]pyrazine-7-carboxylic acid ((R)-2-oxo-piperidin-3-yl)-amide], the pIC50 in data set [1] was 6.50.
As for `CN1CCC[C@@H](NC(=O)c2c[nH]c3ncc(C4CC4)nc23)C1=O` [Compound I-12, 2-Cyclopropyl-5H-pyrrolo[2,3-b]pyrazine-7-carboxylic acid ((R)-1-methyl-2-oxo-piperidin-3-yl)-amide], the pIC50 in data set [1] was 6.75.
The same measure, in the same setting: with `N#CCCN1CCC[C@@H](NC(=O)c2c[nH]c3ncc(C4CC4)nc23)C1=O` [Compound I-13, 2-Cyclopropyl-5H-pyrrolo[2,3-b]pyrazine-7-carboxylic acid [(R)-1-(2-cyano-ethyl)-2-oxo-piperidin-3-yl]-amide] the figure was 6.86.

These data come from patent publication US8481541B2, “Pyrrolopyrazine kinase inhibitors” (Hoffmann-La Roche Inc., priority 2010, dated 2013).
